Measured values as given in patent US11325907B2, “Crystal form of 1H-imidazo[4,5-b]pyridine-2(3H)-one compound and preparation process therefor” (MEDSHINE DISCOVERY INC., priority 2018, dated 2022).

Experiment: Solid stability test under long-term conditions (25° C./Relative Humidity 60%, sealed)
Format: physicochemical
Method: Content Determination Method
Device: Agilent 1260 High Performance Liquid Chromatograph with DAD detector or Shimadzu LC-20A High Performance Liquid Chromatograph with PDA detector
Detailed Chromatographic parameters are as follows:
Chromatographic column: Agilent Eclipse plus C18 (4.6 mm×150 mm, 3.5 μm)
Column temperature: 40° C.
Detecting wavelength: 230 nm
Mobile Phase A: 0.04% trifluoroacetic acid aqueous solution (V/V)
Mobile Phase B: acetonitrile
Diluent: acetonitrile: purified water=3:1 (v/v)
Probe Wash: acetonitrile: purified water=3:1 (v/v)
Gradient elution procedure: […]
Each layer of the low-density polyethylene bag was buckled and sealed respectively and then the bag was placed in an aluminum foil bag and heat-sealed. The samples were taken on the 3rd, 6th, 9th, 12th and 18th months for testing and the test results were compared with the initial test results of day 0.

[1] = Batch 1, 25° C./Relative Humidity 60%, Sealed, 3rd month
[2] = Batch 1, 25° C./Relative Humidity 60%, Sealed, 6th month
[3] = Batch 1, 25° C./Relative Humidity 60%, Sealed, 9th month
[4] = Batch 1, 25° C./Relative Humidity 60%, Sealed, 12th month
[5] = Batch 1, 25° C./Relative Humidity 60%, Sealed, 18th month
[6] = Batch 2, 25° C./Relative Humidity 60%, Sealed, 3rd month
[7] = Batch 2, 25° C./Relative Humidity 60%, Sealed, 6th month
[8] = Batch 2, 25° C./Relative Humidity 60%, Sealed, 9th month
[9] = Batch 2, 25° C./Relative Humidity 60%, Sealed, 12th month
[10] = Batch 2, 25° C./Relative Humidity 60%, Sealed, 18th month
[11] = Batch 3, 25° C./Relative Humidity 60%, Sealed, 3rd month
[12] = Batch 3, 25° C./Relative Humidity 60%, Sealed, 6th month
[13] = Batch 3, 25° C./Relative Humidity 60%, Sealed, 9th month
[14] = Batch 3, 25° C./Relative Humidity 60%, Sealed, 12th month
[15] = Batch 3, 25° C./Relative Humidity 60%, Sealed, 18th month

Appearance [1]: White powder | Content [1]: 99.0% | Total Impurity [1]: 0.09% | Appearance [2]: White powder | Content [2]: 101.4% | Crystal Form (XRPD) [2]: Crystal Form A | Total Impurity [2]: 0.09% | Appearance [3]: White powder | Content [3]: 99.6% | Total Impurity [3]: 0.09% | Appearance [4]: White powder | Content [4]: 98.8% | Crystal Form (XRPD) [4]: Crystal Form A | Total Impurity [4]: 0.08% | Appearance [5]: White powder | Content [5]: 97.3% | Total Impurity [5]: 0.10% | Appearance (Batch 1, Day 0): White powder | Content (Batch 1, Day 0): 99.4% | Crystal Form (XRPD) (Batch 1, Day 0): Crystal Form A | Total Impurity (Batch 1, Day 0): 0.09% | Appearance [6]: White powder | Content [6]: 100.5% | Total Impurity [6]: 0.11% | Appearance [7]: White powder | Content [7]: 100.1% | Crystal Form (XRPD) [7]: Crystal Form A | Total Impurity [7]: 0.12% | Appearance [8]: White powder | Content [8]: 99.6% | Total Impurity [8]: 0.11% | Appearance [9]: White powder | Content [9]: 98.2% | Crystal Form (XRPD) [9]: Crystal Form A | Total Impurity [9]: 0.09% | Appearance [10]: White powder | Content [10]: 99.1% | Total Impurity [10]: 0.11% | Appearance (Batch 2, Day 0): White powder | Content (Batch 2, Day 0): 99.4% | Crystal Form (XRPD) (Batch 2, Day 0): Crystal Form A | Total Impurity (Batch 2, Day 0): 0.10% | Appearance [11]: White powder | Content [11]: 98.9% | Total Impurity [11]: 0.16% | Appearance [12]: White powder | Content [12]: 98.5% | Crystal Form (XRPD) [12]: Crystal Form A | Total Impurity [12]: 0.12% | Appearance [13]: White powder | Content [13]: 99.2% | Total Impurity [13]: 0.11% | Appearance [14]: White powder | Content [14]: 98.4% | Crystal Form (XRPD) [14]: Crystal Form A | Total Impurity [14]: 0.10% | Appearance [15]: White powder | Content [15]: 99.7% | Total Impurity [15]: 0.17% | Appearance (Batch 3, Day 0): White powder | Content (Batch 3, Day 0): 99.5% | Crystal Form (XRPD) (Batch 3, Day 0): Crystal Form A | Total Impurity (Batch 3, Day 0): 0.11% | Solid stability (conclusion) (long-term conditions of 25° C./Relative Humidity 60%): good stability
SMILES: CCOc1cc([C@@H](CS(C)(=O)=O)n2c(=O)[nH]c3c(C)c(-c4ccccc4F)cnc32)ccc1OC [Crystal Form A of Compound 1]
